In assay [1] the test system is E. coli (ATCC25922). Description: Broth microdilution assay, MIC. In kind it is cell-based. The settings on record: Escherichia coli, ATCC25922, read-out: Minimum Inhibitory Concentration.
The test system of assay [2] is P. aeruginosa (ATCC 29853). Put plainly: Broth microdilution assay, MIC/MBC. In kind it is cell-based. The settings on record: for ratio (MBC/MIC): P. aeruginosa (ATCC 29853); for MBC / MIC: Pseudomonas aeruginosa; for fold more efficient than amoxicillin / bactericidal or bacteriostatic effect: P. aeruginosa; for fold more efficient than amoxicillin: from MICs; for bactericidal or bacteriostatic effect: MBC/MIC ≤ 4 = bactericidal.

Assay [3] relates to S. aureus (ATCC 25923). Description: Broth microdilution assay, MIC. In kind it is cell-based. The settings on record: Staphylococcus aureus, ATCC25923, read-out: Minimum Inhibitory Concentration.
Assay [4] has as its system B. subtilis (ATCC 9372). Put plainly: Broth microdilution assay, MIC. The settings on record: Bacillus subtilis, ATCC9372, read-out: Minimum Inhibitory Concentration. In kind it is cell-based.
Assay [5] deals with C. albicans (ATCC 10231). Put plainly: Broth microdilution assay, antifungal MIC/MFC. In kind it is cell-based, Candida albicans. The settings on record: for ratio (MFC/MIC): C. albicans (ATCC 10231); for MFC / MIC: Candida albicans; for fungicidal or fungistatic behavior: C. albicans, MFC/MIC > 4 = fungistatic.
Assay [6] deals with M. tuberculosis (RCMB 010126). Put plainly: Microplate alamar blue assay. In kind it is cell-based, Mycobacterium tuberculosis. The settings on record: Mycobacterium tuberculosis, RCMB010126, sensitive Mycobacterium tuberculosis (RCMB 010126), MABA.
[7] abbreviates: ATCC29853, read-out: Minimum Inhibitory Concentration.
Setting [8] is: ATCC10231, read-out: Minimum Inhibitory Concentration.

Molecules are shown by their SMILES. Values after ≈ are worked out from the molar mass of the structure shown. Read-outs that look alike come from different tables or passages of the source. A value given as a limit tells only on which side of the number the result lay.

Experimental findings from publication PMC10600881 (ACS Omega, 2023) are described below.

Consider `CC1SC(N2N=C(c3cccs3)CC2c2cccs2)=NC1=O` (stereo not drawn) [7a, 2-(4,5-Dihydro-3,5-di(thiophen-2-yl)pyrazol-1-yl)-5-methylthiazol-4(5H)-one], for which the MIC in assay [1] is 125 µg/mL (≈ 360 µM); in assay [2] (ATCC29853) it was above 500 µg/mL; in assay [2] (setting [7]), above 500 µg/mL; in assay [3], above 500 µg/mL; in assay [4] it was 125 µg/mL (≈ 360 µM); in assay [5] (ATCC10231), 62.5 µg/mL (≈ 180 µM). In addition, the MIC in assay [5] (setting [8]) and in assay [6] was 62.5 µg/mL (≈ 180 µM) each time. Further, in assay [2], the “ratio (MBC/MIC)” value is above 1. In addition, in assay [2] (ATCC29853), the MBC was above 500 µg/mL. Further, the “ratio (MFC/MIC)” value in assay [5] amounted to 4. Further, the MFC in assay [5] (ATCC10231) is 250 µg/mL (≈ 719 µM).
`Cc1csc(N2N=C(c3cccs3)CC2c2cccs2)n1` (stereo not drawn) [3a, 4,5-Dihydro-1-(4-methylthiazol-2-yl)-3,5-di(thiophen-2-yl)-1H-pyrazole]: the MIC in assay [1] is 500 µg/mL (≈ 1510 µM); in assay [2] (ATCC29853), above 500 µg/mL; in assay [2] (setting [7]) it was above 500 µg/mL; in assay [3], 250 µg/mL (≈ 754 µM); in assay [4], 62.5 µg/mL (≈ 189 µM); in assay [5] (ATCC10231), 125 µg/mL (≈ 377 µM). The MIC stood at 125 µg/mL (≈ 377 µM) in assay [5] (setting [8]) and 62.5 µg/mL (≈ 189 µM) in assay [6]. Besides, the “ratio (MBC/MIC)” value in assay [2] is given as above 1. Besides, the MBC in assay [2] (ATCC29853) is above 500 µg/mL. Moreover, in assay [5], the “ratio (MFC/MIC)” value is listed as above 4. Also, the “fungicidal or fungistatic behavior” value in assay [5] was “fungistatic”. In assay [5] (ATCC10231), this molecule displayed a minimum fungicidal concentration (MFC) above 500 µg/mL.
Turning to `CCOC(=O)c1sc(N2N=C(c3cccs3)CC2c2cc(OC)ccc2OC)nc1C` (stereo not drawn) [5b, Ethyl 2-(4,5-dihydro-5-(2,5-dimethoxyphenyl)-3-(thiophen-2-yl)pyrazol-1-yl)-4-methylthiazole-5-carboxylate], the MIC in assay [1] came to 125 µg/mL (≈ 273 µM); in assay [2] (ATCC29853) it was 31.2 µg/mL (≈ 68.3 µM); in assay [2] (setting [7]), 31.2 µg/mL (≈ 68.3 µM); in assay [3], 62.5 µg/mL (≈ 137 µM); in assay [4], 125 µg/mL (≈ 273 µM); in assay [5] (ATCC10231), 62.5 µg/mL (≈ 137 µM). The MIC in assay [5] (setting [8]) was 62.5 µg/mL (≈ 137 µM); in assay [6] it was 31.2 µg/mL (≈ 68.3 µM). Moreover, the “ratio (MBC/MIC)” value in assay [2] amounted to 2. In addition, the “fold more efficient than amoxicillin” value in assay [2] was around 16 fold. Moreover, the “bactericidal or bacteriostatic effect” value in assay [2] is given as “bactericidal”. The same molecule showed a minimum bactericidal concentration (MBC) in assay [2] (ATCC29853) of 62.2 µg/mL (≈ 136 µM). For the same molecule, the “ratio (MFC/MIC)” value in assay [5] worked out at 2. Further, in assay [5] (ATCC10231), the MFC was found to be 125 µg/mL (≈ 273 µM).
For the molecule `COc1ccc(OC)c(C=C2SC(N3N=C(c4cccs4)CC3c3cc(OC)ccc3OC)=NC2=O)c1` (stereo not drawn) [8d, 5-(2,5-Dimethoxybenzylidene)-2-(4,5-dihydro-5-(2,5-dimethoxyphenyl)-3-(thiophen-2-yl)pyrazol-1-yl)thiazol-4(5H)-one], the MIC in assay [1] amounted to 125 µg/mL (≈ 233 µM); in assay [2] (ATCC29853), 62.2 µg/mL (≈ 116 µM); in assay [2] (setting [7]), 62.2 µg/mL (≈ 116 µM); in assay [3], 62.5 µg/mL (≈ 117 µM); in assay [4], 125 µg/mL (≈ 233 µM); in assay [5] (ATCC10231) it was 62.5 µg/mL (≈ 117 µM). Moreover, the MIC in assay [5] (setting [8]) turned out to be 62.5 µg/mL (≈ 117 µM); in assay [6], 31.2 µg/mL (≈ 58.3 µM). Also, the “ratio (MBC/MIC)” value in assay [2] turned out to be 2. Also, the “bactericidal or bacteriostatic effect” value in assay [2] was “bactericidal”. Moreover, in assay [2] (ATCC29853), the MBC turned out to be 125 µg/mL (≈ 233 µM). Also, the “ratio (MFC/MIC)” value in assay [5] stood at 2. Besides, the minimum fungicidal concentration (MFC) in assay [5] (ATCC10231) came to 125 µg/mL (≈ 233 µM).
`O=C1CCSC(N2N=C(c3cccs3)CC2c2cccs2)=N1` (stereo not drawn) [10a, 5,6-Dihydro-2-(4,5-dihydro-3,5-di(thiophen-2-yl)pyrazol-1-yl)-1,3-thiazin-4-one]: the MIC in assay [1] came to 125 µg/mL (≈ 360 µM); in assay [2] (ATCC29853), 31.2 µg/mL (≈ 89.9 µM); in assay [2] (setting [7]) it was 31.2 µg/mL (≈ 89.9 µM); in assay [3] it was 125 µg/mL (≈ 360 µM); in assay [4] it was 62.5 µg/mL (≈ 180 µM); in assay [5] (ATCC10231), 62.5 µg/mL (≈ 180 µM). Besides, the MIC in assay [5] (setting [8]) worked out at 62.5 µg/mL (≈ 180 µM); in assay [6], 31.2 µg/mL (≈ 89.9 µM). Moreover, in assay [2], the “ratio (MBC/MIC)” value is 4. In assay [2], the “fold more efficient than amoxicillin” value is listed as around 16 fold. In assay [2], the “bactericidal or bacteriostatic effect” value is listed as “bactericidal”. In assay [2] (ATCC29853), this molecule gave a minimum bactericidal concentration (MBC) of 125 µg/mL (≈ 360 µM). The “ratio (MFC/MIC)” value in assay [5] was 4. This molecule also displayed a minimal fungicidal concentration (MFC) in assay [5] (ATCC10231) of 250 µg/mL (≈ 719 µM).
`COc1ccc(OC)c(C2CC(c3cccs3)=NN2C2=NC(=O)C(C)S2)c1` (stereo not drawn) [7b, 2-(4,5-Dihydro-5-(2,5-dimethoxyphenyl)-3-(thiophen-2-yl)pyrazol-1-yl)-5-methylthiazol-4(5H)-one]: the MIC in assay [1] came out at 125 µg/mL (≈ 311 µM); in assay [2] (ATCC29853), 125 µg/mL (≈ 311 µM); in assay [2] (setting [7]) it was 125 µg/mL (≈ 311 µM); in assay [3], 250 µg/mL (≈ 623 µM); in assay [4] it was 125 µg/mL (≈ 311 µM); in assay [5] (ATCC10231), 62.5 µg/mL (≈ 156 µM). The MIC in assay [5] (setting [8]) and in assay [6] was 62.5 µg/mL (≈ 156 µM) throughout. Further, in assay [2], the “ratio (MBC/MIC)” value turned out to be 2. Moreover, the “bactericidal or bacteriostatic effect” value in assay [2] is “bactericidal”. In addition, the MBC in assay [2] (ATCC29853) came out at 250 µg/mL (≈ 623 µM). In assay [5], the “ratio (MFC/MIC)” value is on record as 8. The “fungicidal or fungistatic behavior” value in assay [5] was “fungistatic”. Also, in assay [5] (ATCC10231), the MFC was 500 µg/mL (≈ 1250 µM).
In assay [6], `NNC(=O)c1ccncc1` [isoniazid, reference compound] showed an MIC of 0.12 µg/mL (≈ 0.875 µM).
